Measured values as given in PMC4376459, “CXCR3 antagonist VUF10085 binds to an intrahelical site distinct from that of the broad spectrum antagonist TAK-779” (British Journal of Pharmacology, 2015).
Where a chain is given by its changes, count along the chain named.

Experiments:
[1] = system: six 'loss of charge' CXCR3 mutants; experiment: Chemotaxis assay, panel of charged extracellular residue mutants; type: cell-based, human; conditions: 30 nM CXCL11, 100 μM TAK-779, versus WT
Protocol: Assays of chemotactic responsiveness were carried out as previously described (Vaidehi et al., [2009]) using 96-well ChemoTx® plates with 5 μm pores (Neuroprobe, Gaithersburg, MD, USA). Migrating cells were detected by the use of CellTiter Glo® Dye (Promega, Southampton, UK) and resulting luminescence measured using a TopCount scintillation counter (PerkinElmer, Waltham, MA, USA). Basal migration of cells to buffer alone was subtracted from the resulting data, with individual results expressed as a percentage of the total cells applied to the filter. In all experiments, each data point was assayed in duplicate. In every experiment, cells transiently expressing WT CXCR3 were used as a positive control.
We have previously used an alternative panel of six ‘loss of charge’ CXCR3 mutants to determine the counterion for a negatively charged small molecule CXCR3 agonist (Nedjai et al., [2011]). Although these acidic residues lay outside our initially molecular modelling of the TAK-779:CXCR3 interaction, we tested the hypothesis that one or more of these acidic residues may contribute to TAK-779 binding. […]
Figure 6 Mutation of charged extracellular residues has no effect upon the ability of TAK-779 to inhibit chemotaxis in response to CXCL11. Migration of a panel of CXCR3 transfectants to 30 nM CXCL11 in the presence of 100 μM TAK-779 was determined.

WT CXCR3 = molecular target: T1, WT CXCR3 (Homo sapiens, UniProt P49682); experiment: Chemotaxis assay, L1.2 transfectants migrating to CXCL11; type: cell-based
T1 construct: expressed in transfected cells; host or cells: murine pre-B cell line L1.2, transient transfection by electroporation
T1 sequence (P49682 1-368): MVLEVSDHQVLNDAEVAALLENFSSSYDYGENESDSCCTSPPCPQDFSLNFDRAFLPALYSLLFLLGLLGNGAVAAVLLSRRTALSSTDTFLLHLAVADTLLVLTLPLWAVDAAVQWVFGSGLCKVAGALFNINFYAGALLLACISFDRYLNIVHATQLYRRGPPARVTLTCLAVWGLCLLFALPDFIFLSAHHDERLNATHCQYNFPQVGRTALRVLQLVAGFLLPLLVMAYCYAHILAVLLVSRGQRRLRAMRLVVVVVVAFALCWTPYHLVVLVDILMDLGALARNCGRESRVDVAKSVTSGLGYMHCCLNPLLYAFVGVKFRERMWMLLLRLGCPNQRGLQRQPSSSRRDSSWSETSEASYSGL

CXCR3 H202A (ECL2) = molecular target: T2, CXCR3 H202A (ECL2) (Homo sapiens, UniProt P49682, H202A); experiment: as above; type: cell-based
T2 construct: expressed in transfected cells; host or cells: murine pre-B cell line L1.2, transient transfection
T2 sequence (P49682 1-368 H202A): T1 sequence (P49682 1-368) with H202A

CXCR3 F131A = molecular target: T3, CXCR3 F131A (Homo sapiens, UniProt P49682, F131A); experiment: as above; type: cell-based
T3 construct: expressed in transfected cells; host or cells: murine pre-B cell line L1.2, transient transfection
T3 sequence (P49682 1-368 F131A): T1 sequence (P49682 1-368) with F131A

CXCR3 Y60A = molecular target: T4, CXCR3 Y60A (Homo sapiens, UniProt P49682, Y60A); experiment: as above; type: cell-based
T4 construct: expressed in transfected cells; host or cells: murine pre-B cell line L1.2, transient transfection
T4 sequence (P49682 1-368 Y60A): T1 sequence (P49682 1-368) with Y60A

CXCR3 I279A = molecular target: T5, CXCR3 I279A (Homo sapiens, UniProt P49682, I279A); experiment: as above; type: cell-based
T5 construct: expressed in transfected cells; host or cells: murine pre-B cell line L1.2, transient transfection
T5 sequence (P49682 1-368 I279A): T1 sequence (P49682 1-368) with I279A

[2] = 30 nM CXCL11, read-out: IC50 chemotaxis (mean ± SEM)

Row | Compound | ability to inhibit migration to CXCL11 [1] | IC50 (WT CXCR3; WT CXCR3, 30 nM CXCL11, read-out: IC50 chemotaxis (mean ± SEM)) [µM] | IC50 (CXCR3 H202A (ECL2); H202A (ECL2), 30 nM CXCL11, read-out: IC50 chemotaxis (mean ± SEM)) [µM] | increase in IC50 value, chemotaxis (CXCR3 H202A (ECL2); H202A versus WT, 30 nM CXCL11) | IC50 (CXCR3 F131A; [2]) [µM] | IC50 (CXCR3 Y60A; [2]) [µM] | IC50 (CXCR3 I279A; [2]) [µM] | optimum concentration of bell-shaped chemotaxis response (WT CXCR3; WT CXCR3) [nM] | % of WT chemotaxis to 30 nM CXCL11 (mean ± SEM) (WT CXCR3; WT CXCR3, 30 nM CXCL11) [%] | % of WT chemotaxis to 30 nM CXCL11 (mean ± SEM) (CXCR3 H202A (ECL2); H202A) [%] | % of WT chemotaxis to 30 nM CXCL11 (mean ± SEM) (CXCR3 F131A) [%] | % of WT chemotaxis to 30 nM CXCL11 (mean ± SEM) (CXCR3 Y60A) [%] | % of WT chemotaxis to 30 nM CXCL11 (mean ± SEM) (CXCR3 I279A) [%]
1 | Cc1ccc(-c2ccc3c(c2)C=C(C(=O)Nc2ccc(C[N+](C)(C)C4CCOCC4)cc2)CCC3)cc1.[Cl-] [TAK-779, N,N-dimethyl-N-[4-[[[2-(4-methylphenyl)-6,7-dihydro-5H-benzocyclohepten-8-yl]-carbonyl]amino]benzyl] tetrahydro-2H-pyran-4-aminium chloride] | not reduced | 15.8 ± 3.1 | 32.7 ± 14 | twofold | 15 ± 6.98 | 10.2 ± 4.62 | 10.5 ± 3.35 |  |  |  |  |  | 
2 | CXCL11: recombinant human chemokine, CXCR3 agonist, purchased from PeproTech |  |  |  |  |  |  |  | 30 | 100 ± 4.32 | 66.0 ± 34.8 | 53.7 ± 5.6 | 55.4 ± 16.4 | 51.3 ± 6.2
